In patent publication US20190083482A1, “PRMT5 INHIBITORS AND USES THEREOF” (Epizyme, Inc., priority 2017, published 2019):

Columns and labels:
[1] = biological target: T1, PRMT5/MEP50 (Homo sapiens, UniProt O14744); test: PRMT5 Biochemical Assay (PRMT5/MEP50 enzyme assay on peptide substrate, 3H-SAM Flashplate); settings: PRMT5/MEP50 4 nM, 3H-SAM 75 nM, peptide 40 nM
T1 construct: Flag-PRMT5; made in house; host or cells: Spodoptera frugiperda (SF9) insect cells, baculovirus
Excerpt: S-adenosylmethionine (SAM), S-adenosylhomocysteine (SAH), bicine, KCl, Tween20, dimethylsulfoxide (DMSO), bovine skin gelatin (BSG), and Tris(2-carboxyethyl)phosphine hydrochloride solution (TCEP) were purchased from Sigma-Aldrich at the highest level of purity possible. ^3H-SAM was purchase from American Radiolabeled Chemicals with a specific activity of 80 C1/mmol. 384-well streptavidin Flashplates were purchased from PerkinElmer.
Peptide representative of human histone H4 residues 1-15 was synthesized with a C-terminal linker-affinity tag motif and a C-terminal amide cap by 21st Century Biochemicals.
The amplified genes were sublconed into pENTR/D/TEV (Life Technologies) and subsequently transferred by Gateway™ attL×attR recombination to pDEST8 baculvirus expression vector (Life Technologies).
Protein over-expression was accomplished by infecting exponentially growing Spodoptera frugiperda (SF9) cell culture at 1.2×10^6 cell/ml with a 5000 fold dilution of BIIC stock. Infections were carried out at 27° C. for 72 hours, harvested by centrifugation, and stored at −80° C. for purification.
Flag-PRMT5/6His-MeP50 was eluted with 300 mM Imidazole in the same buffer.
General Procedure for PRMT5/MEP50 Enzyme Assays on Peptide Substrates.
The assays were all performed in a buffer consisting of 20 mM Bicine (pH=7.6), 1 mM TCEP, 0.005% BSG, and 0.002% Tween20, prepared on the day of use. […] DMSO (1 ul) was added to Columns 11, 12, 23, 24, rows A-H for the maximum signal control and 1 ul of SAH, a known product and inhibitor of PRMT5/MEP50, was added to columns 11, 12, 23, 24, rows I-P for the minimum signal control. A cocktail (40 ul) containing the PRMT5/MEP50 enzyme and the peptide was added by Multidrop Combi (Thermo-Fisher). The compounds were allowed to incubate with PRMT5/MEP50 for 30 min at 25 degrees Celsius, then a cocktail (10 ul) containing ^3H-SAM was added to initiate the reaction (final volume=51 ul). […] The assays were stopped by the addition of non-radioactive SAM (10 ul) to a final concentration of 600 uM, which dilutes the ^3H-SAM to a level where its incorporation into the peptide substrate is no longer detectable. 50 ul of the reaction in the 384-well polypropylene plate was then transferred to a 384-well Flashplate and the biotinylated peptides were allowed to bind to the streptavidin surface for at least 1 hour before being washed three times with 0.1% Tween20 in a Biotek ELx405 plate washer. The plates were then read in a PerkinElmer TopCount plate reader to measure the quantity of ^3H-labeled peptide bound to the Flashplate surface, measured as disintegrations per minute (dpm) or alternatively, referred to as counts per minute (cpm).
Where dpm=disintegrations per minute, cmpd=signal in assay well, and min and max are the respective minimum and maximum signal controls.
Where top and bottom are the normally allowed to float, but may be fixed at 100 or 0 respectively in a 3-parameter fit. The Hill Coefficient normally allowed to float but may also be fixed at 1 in a 3-parameter fit. Y is the % inhibition and X is the compound concentration.

[2] = test system: Z-138 cell line; test: Z-138 Proliferation Assay (Cell Titer Glo); assay type: cell-based; settings: Homo sapiens, 120 h; Z-138 cells, 5 days incubation, top concentration 20 μM
Excerpt: Z-138 Proliferation Assay
Z-138 suspension cells were purchased from ATCC (American Type Culture Collection, Manassas, Va.). RPMI/Glutamax medium, penicillin-streptomycin, heat inactivated fetal bovine serum were purchased from Life Technologies, Grand Island, N.Y., USA. V-bottom polypropylene 384-well plates were purchased from Greiner Bio-One, Monroe, N.C., USA. Cell culture 384-well white opaque plates were purchased from Perkin Elmer, Waltham, Mass., USA. Cell-Titer Glo® was purchased from Promega Corporation, Madison, Wis., USA. SpectraMax M5 plate reader was purchased from Molecular Devices LLC, Sunnyvale, Calif., USA.
Z-138 suspension cells were maintained in growth medium (RPMI 1640 supplemented with 10% v/v heat inactivated fetal bovine serum and cultured at 37° C. under 5% CO2. Under assay conditions, cells were incubated in assay medium (RPMI 1640 supplemented with 10% v/v heat inactivated fetal bovine serum and 100 units/mL penicillin-streptomycin) at 37° C. under 5% CO2.
For the assessment of the effect of compounds on the proliferation of the Z-138 cell line, exponentially growing cells were plated in 384-well white opaque plates at a density of 10,000 cells/ml in a final volume of 50 μl of assay medium. A compound source plate was prepared by performing triplicate nine-point 3-fold serial dilutions in DMSO, beginning at 10 mM (final top concentration of compound in the assay was 20 μM and the DMSO was 0.2%). A 100 nL aliquot from the compound stock plate was added to its respective well in the cell plate. […] After addition of compounds, assay plates were incubated for 5 days at 37° C., 5% CO2, relative humidity >90%. Cell viability was measured by quantitation of ATP present in the cell cultures, adding 35 μl of Cell Titer Glo® reagent to the cell plates. Luminescence was read in the SpectraMax M5 microplate reader. The concentration of compound inhibiting cell viability by 50% was determined using a 4-parametric fit of the normalized dose response curves.

[3] = test system: symmetric di-methyl arginine in Z-138 cells; test: Z-138 Methylation Assay (In Cell Western for symmetric di-methyl arginine); assay type: cell-based; settings: Homo sapiens, 96 hours incubation, read-out: ICW EC50
Excerpt: Z-138 suspension cells were purchased from ATCC (American Type Culture Collection, Manassas, Va.). RPMI/Glutamax medium, penicillin-streptomycin, heat inactivated fetal bovine serum, and D-PBS were purchased from Life Technologies, Grand Island, N.Y., USA. Odyssey blocking buffer, 800 CW goat anti-rabbit IgG (H+L) antibody, and Licor Odyssey infrared scanner were purchased from Licor Biosciences, Lincoln, Nebr., USA. Symmetric di-methyl arginine antibody was purchased from EMD Millipore, Billerica, Mass., USA. 16% Paraformaldehyde was purchased from Electron Microscopy Sciences, Hatfield, Pa., USA.
Z-138 suspension cells were maintained in growth medium (RPMI 1640 supplemented with 10% v/v heat inactivated fetal bovine serum and 100 units/mL penicillin-streptomycin) and cultured at 37° C. under 5% CO2.
Cell Treatment, in Cell Western (ICW) for Detection of Symmetric Di-Methyl Arginine and DNA Content.
Z-138 cells were seeded in assay medium at a concentration of 50,000 cells per mL to a 384-well cell culture plate with 50 μL per well. Compound (100 nL) from 384 well source plates was added directly to 384 well cell plate. Plates were incubated at 37° C., 5% CO2 for 96 hours. After four days of incubation, 40 μL of cells from incubated plates were added to poly-D-lysine coated 384 well culture plates (BD Biosciences 356697). Plates were incubated at room temperature for 30 minutes then incubated at 37° C., 5% CO2 for 5 hours. After the incubation, 40 μL per well of 8% paraformaldehyde in PBS (16% paraformaldahyde was diluted to 8% in PBS) was added to each plate and incubated for 30 minutes. Plates were transferred to a Biotek 405 plate washer and washed 5 times with 100 μL per well of wash buffer (1×PBS with 0.1% Triton X-100 (v/v)). Next 30 μL per well of Odyssey blocking buffer were added to each plate and incubated 1 hour at room temperature. Blocking buffer was removed and 20 μL per well of primary antibody was added (symmetric di-methyl arginine diluted 1:100 in Odyssey buffer with 0.1% Tween 20 (v/v)) and plates were incubated overnight (16 hours) at 4° C. Plates were washed 5 times with 100 μL per well of wash buffer. Next 20 μL per well of secondary antibody was added (1:200 800 CW goat anti-rabbit IgG (H+L) antibody, 1:1000 DRAQ5 (Biostatus limited) in Odyssey buffer with 0.1% Tween 20 (v/v)) and incubated for 1 hour at room temperature. The plates were washed 5 times with 100 μL per well wash buffer then 1 time with 100 μL per well of water. Plates were allowed to dry at room temperature then imaged on the Licor Odyssey machine which measures integrated intensity at 700 nm and 800 nm wavelengths. Both 700 and 800 channels were scanned.
First, the ratio for each well was determined by:
Each plate included fourteen control wells of DMSO only treatment (minimum inhibition) as well as fourteen control wells for maximum inhibition treated with 3 μM of a reference compound (Background wells). The average of the ratio values for each control type was calculated and used to determine the percent inhibition for each test well in the plate. Reference compound was serially diluted three-fold in DMSO for a total of nine test concentrations, beginning at 3 μM. Percent inhibition was determined and IC50 curves were generated using triplicate wells per concentration of compound.

T1 sequence (O14744 with tags, fused parts or gaps): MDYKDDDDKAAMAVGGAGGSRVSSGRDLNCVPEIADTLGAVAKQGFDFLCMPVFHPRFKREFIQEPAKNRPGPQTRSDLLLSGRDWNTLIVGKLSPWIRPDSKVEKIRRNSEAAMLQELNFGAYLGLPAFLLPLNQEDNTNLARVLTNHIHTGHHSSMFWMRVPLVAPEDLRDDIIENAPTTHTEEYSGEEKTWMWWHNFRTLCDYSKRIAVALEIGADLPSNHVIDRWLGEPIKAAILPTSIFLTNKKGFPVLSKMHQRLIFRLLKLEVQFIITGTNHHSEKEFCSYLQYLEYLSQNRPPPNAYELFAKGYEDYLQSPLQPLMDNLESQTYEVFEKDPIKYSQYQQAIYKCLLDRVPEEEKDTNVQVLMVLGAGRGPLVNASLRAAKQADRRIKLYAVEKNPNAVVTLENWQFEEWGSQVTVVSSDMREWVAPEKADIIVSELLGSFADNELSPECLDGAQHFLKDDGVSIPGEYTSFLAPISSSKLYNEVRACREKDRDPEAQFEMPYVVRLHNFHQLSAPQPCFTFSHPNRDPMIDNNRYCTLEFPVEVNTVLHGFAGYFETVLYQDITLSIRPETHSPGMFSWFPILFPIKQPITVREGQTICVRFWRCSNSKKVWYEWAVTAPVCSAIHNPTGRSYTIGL
T1 sequence (Q9BQA1 with tags, fused parts or gaps partner limits assumed): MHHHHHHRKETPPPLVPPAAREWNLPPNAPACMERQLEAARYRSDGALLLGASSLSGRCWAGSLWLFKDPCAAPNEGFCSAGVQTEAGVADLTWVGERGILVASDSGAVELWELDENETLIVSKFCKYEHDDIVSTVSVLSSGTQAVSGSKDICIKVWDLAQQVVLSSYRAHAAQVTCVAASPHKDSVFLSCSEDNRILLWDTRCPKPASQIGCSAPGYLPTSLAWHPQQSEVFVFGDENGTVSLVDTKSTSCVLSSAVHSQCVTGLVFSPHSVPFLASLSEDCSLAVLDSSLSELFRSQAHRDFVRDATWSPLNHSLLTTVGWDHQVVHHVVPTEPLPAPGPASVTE

IC50 [1] [nM] | EC50 [3] [nM] | SMILES | EC50 [2] [µM]
< 100 | 101 to 1000 | CC(NC(=O)COc1ccccc1S(N)(=O)=O)C(O)CN1CCc2ccccc2C1 (stereo not shown) [Compound 170] | 10 to 50
– | 101 to 1000 | O=C(COc1cncc(CN2CCOCC2)c1)NCC(O)CN1CCc2ccccc2C1 (stereo not shown) [Compound 172] | 10 to 50
– | 1000 to 10000 | O=C(COc1cncc(C(=O)N2CCOCC2)c1)NCC(O)CN1CCc2ccccc2C1 (stereo not shown) [Compound 161] | > 20
< 100 | < 100 | Nc1ncnc2c(OCC(=O)NCC(O)CN3CCc4ccccc4C3)cccc12 (stereo not shown) [Compound 168] | 1 to 10
– | 1000 to 10000 | Cn1ncc2ccc(OCC(=O)NC[C@@H](O)CN3CCc4ccccc4C3)cc21 [Compound 160] | > 20
< 100 | 101 to 1000 | Cn1cnc(-c2ccccc2OCC(=O)NCC(O)CN2CCc3ccccc3C2)c1 (stereo not shown) [Compound 153] | 10 to 50
– | – | Cn1ncc2ccc(OCC(=O)NCC(O)CN3CCc4ccccc4C3)cc21 (stereo not shown) [Compound 23, N-(3-(3,4-dihydroisoquinolin-2(1H)-yl)-2-hydroxypropyl)-2-((1-methyl-1H-indazol-6-yl)oxy)acetamide] | 1 to 10
< 100 | 101 to 1000 | Cc1nn(C)c2cccc(OCC(=O)NCC(O)CN3CCc4ccccc4C3)c12 (stereo not shown) [Compound 158] | 1 to 10
< 100 | – | CN(C)CCN(C)S(=O)(=O)c1ccccc1OCC(=O)NC[C@@H](O)CN1CCc2ccccc2C1 [Compound 191] | –
– | 101 to 1000 | O=C(Cc1ccc2c(c1)OCO2)NC[C@H](O)CN1CCc2ccccc2C1 [Compound 174] | > 20
– | 101 to 1000 | O=C(CC1CCc2ccccc21)NC[C@H](O)CN1CCc2ccccc2C1 (stereo partly shown) [Compound 178] | 1 to 10
< 100 | < 100 | CN(C)c1cccc(OCC(=O)NCC(O)CN2CCc3ccccc3C2)c1S(N)(=O)=O (stereo not shown) [Compound 169] | 1 to 10
< 100 | < 100 | Cn1ncc2ccc(OCC(=O)NC[C@H](O)CN3CCc4ccccc4C3)cc21 [Compound 159] | 1 to 10
– | 101 to 1000 | O=C(Cc1c[nH]c2ccccc12)NC[C@H](O)CN1CCc2ccccc2C1 [Compound 182] | –
< 100 | < 100 | O=C(COc1cccc2cncnc12)NCC(O)CN1CCc2ccccc2C1 (stereo not shown) [Compound 181] | –
– | 101 to 1000 | O=C(NC[C@H](O)CN1CCc2ccccc2C1)C1COc2ccccc2O1 (stereo partly shown) [Compound 183] | –
< 100 | < 100 | CN(c1ccccc1OCC(=O)NCC(O)CN1CCc2ccccc2C1)S(C)(=O)=O (stereo not shown) [Compound 155] | 1 to 10
– | 101 to 1000 | O=C(NCC(O)CN1CCc2ccccc2C1)C(O)c1ccccc1 (stereo not shown) [Compound 165] | > 20
< 100 | < 100 | O=C(CCc1nc2ccccc2[nH]1)NC[C@H](O)CN1CCc2ccccc2C1 [Compound 175, (S)-3-(1H-benzo[d]imidazol-2-yl)-N-(3-(3,4-dihydroisoquinolin-2(1H)-yl)-2-hydroxypropyl)propanamide] | 0.101 to 1
– | 101 to 1000 | O=C(NC[C@H](O)CN1CCc2ccccc2C1)C1CNc2ccccc21 (stereo partly shown) [Compound 177] | 10 to 50
– | 101 to 1000 | O=C(CC1Cc2ccccc2C1)NC[C@H](O)CN1CCc2ccccc2C1 [Compound 179] | 10 to 50
< 100 | – | CN1CCN(c2cccc(OCC(=O)NC[C@@H](O)CN3CCc4ccccc4C3)c2)CC1 [Compound 190] | –
< 100 | < 100 | Cc1cn(C)c2cccc(OCC(=O)NC[C@@H](O)CN3CCc4ccccc4C3)c12 [Compound 164] | 0.101 to 1
< 100 | 101 to 1000 | Cc1cn(C)c2cccc(OCC(=O)NC[C@H](O)CN3CCc4ccccc4C3)c12 [Compound 163] | 1 to 10
– | 1000 to 10000 | CC(=O)Nc1ccncc1OCC(=O)NCC(O)CN1CCc2ccccc2C1 (stereo not shown) [Compound 162] | > 20
